Paper PMC10829696, “Identification, expression profiles, and binding properties of chemosensory protein 18 in Plutella xylostella (Lepidoptera: Plutellidae)” (Journal of Insect Science, 2024)
Where two headings read alike, the source gives them in different places.

Key:
PxylCSP18 [1] = target: T1, PxylCSP18 (Plutella xylostella, UniProt A0ABQ7Q8H2, Q80P); assay: Titration of PxylCSP18 with fluorescent probe 1-NPN (Scatchard plot); type: binding; conditions: 1 µM protein in 20 mM Tris–HCl pH 7.4, 1-NPN 1 to 17 µM, Scatchard plots; read-out: dissociation constant (K1-NPN)
Protocol: The fluorescence competitive binding assays were performed as described previously ([Fu et al. 2020], [Hua et al. 2021]) with some modifications. Briefly, the emission spectra of the fluorescent probe, N-phenyl-1-naphthylamine (1-NPN, Sigma-Aldrich, USA), were recorded from 350 to 600 nm with 5 nm width of the emission slits and the excitation wavelength was 337 nm. To measure the affinity of 1-NPN to PxylCSP18, 1 µM protein in 20 mM Tris–HCl buffer (pH 7.4) was titrated with 1-NPN to final concentrations ranging from 1 to 17 µM in 1 cm light path quartz cuvette. After incubation for 3 min, the fluorescence intensity for each test was detected on an RF-5301 fluorescence spectrophotometer (Shimadzu, Japan). The average data of the recorded fluorescence intensity at the maximum emission wavelength were linearized using the Scatchard equation, and the dissociation constants for 1-NPN were then calculated ([Sideris et al. 1992], [Hua et al. 2021]). Sixteen ligands, including 3 sex pheromone components ((Z)-11-hexadecenal, (Z)-11-hexadecenyl acetate, and (Z)-11-hexadecenyl alcolol) and some host volatiles (terpene, ketone, aldehyde, alcohol, and ester volatiles), were detected the affinities of PxylCSP18. The final concentrations for each ligand ranging from 1 to 17 µM were added into the mixed solution of 1-NPN probe (1 µM) and PxylCSP18 (1 µM). […]

PxylCSP18 [2] = target: T1, PxylCSP18; assay: Fluorescence competitive binding assays with 1-NPN as probe; conditions: for Ki: Ki = [IC50]/(1 + [1-NPN]/K1-NPN)
Protocol: The coding region of mature PxylCSP18 was cloned from the synthesized cDNA with the specific primers, in which an EcoR V and an Xho I restriction sites were introduced (Table 1). The amplified product was cloned into the pET-32a vector (Novagen, USA), followed by transformation into the competent E. coli BL21 (DE3) (Tiangen, China). The expression of PxylCSP18 in the bacteria was induced by 0.6 mM isopropyl-beta-D-thiogalactopyranoside (IPTG) overnight. Subsequently, the bacterial cells were collected through centrifugation and resuspended into phosphate-buffered saline (PBS) solution, then homogenized through sonication on ice using an ultrasonic processor (Sonics Vibra-Cell, USA). PxylCSP18 was purified from the soluble faction using a Ni^2+-NTA column (Roche, Switzerland) through a stepwise elution with 20, 50, 100, 150, and 500 mM imidazole in PBS. […] Finally, the PxylCSP18 was concentrated through ultrafiltration using a centrifugal device (3 kDa, Merck Millipore, USA), and the concentration was determined using the BCA Protein Assay Kit (Sangon, China). The purified recombinant PxylCSP18 was verified by peptide mass fingerprinting (Sangon Biotech, China).
Briefly, the emission spectra of the fluorescent probe, N-phenyl-1-naphthylamine (1-NPN, Sigma-Aldrich, USA), were recorded from 350 to 600 nm with 5 nm width of the emission slits and the excitation wavelength was 337 nm. […] Sixteen ligands, including 3 sex pheromone components ((Z)-11-hexadecenal, (Z)-11-hexadecenyl acetate, and (Z)-11-hexadecenyl alcolol) and some host volatiles (terpene, ketone, aldehyde, alcohol, and ester volatiles), were detected the affinities of PxylCSP18. […] The acquired data were calculated from the Scatchard plots for dissociation constants (Kd) and the curves, assuming PxylCSP18 was active completely and bound to the ligands in a 1:1 ratio at saturation.

PxylCSP11 = system: PxylCSP11; design: method as in Fu et al. 2020; conditions: ref Fu et al. 2020; cited from earlier work
P. xylostella adults = assay: Y-tube olfactometer bioassays after RNAi knockdown of PxylCSP18; type: in vivo, Plutella xylostella; conditions: day-2 unmated, 10 μg/μl in paraffin oil, dsCSP18 vs dsGFP
Protocol: The pupae the day before eclosion were collected and used for RNA interference. The pupae were anesthetized on ice and then injected with 1 μl of dsRNA (10 μg/μl) at the dorsal site of the abdomen using a Nanoject III micro-injector (Drummond Scientific, Broomall, PA) equipped with glass capillaries prepared using a P-97 micropipette puller (Sutter Instrument Co., Novato, CA). The antennae of day-2 unmated female and male adults were collected to detect the efficiency of RNAi-mediated knockdown of PxylCSP18 through […]. Three independent biological replicates were performed.
The responses of the day-2 unmated female and male adults to the volatile compounds were performed using a glass Y-tube olfactometer with a central glass tube (5 cm long × 2.5 cm ID) and 2 lateral glass arms (15 cm long × 2.5 cm ID) with a 75° inside angle as described previously ([Yan et al. 2023]), with some modifications. Before bioassays, all glasswares were cleaned and washed with absolute alcohol and dried at 100 °C for 5 min. A moistened and activated charcoal-filtered airflow (350 mL/min) was pumped into each source container using an atmospheric sampling instrument (QC-1S, Beijing Institute of Labor Protection Science, Beijing, China). The behavioral response of male and female adults of P. xylostella to trans-2-hexen-1-ol, isopropyl isothiocyanate, myrcene, linalool were then observed. Each component was diluted with paraffin oil to 10 μg/μl. For each chemical, an aliquot of 10 μl was applied to a strip of filter paper (0.5 × 5 cm) and placed in 1 source container. A filter paper strip loaded with the same volume of paraffin oil and placed in the second source container was used as a control. Each test male or female moth was released at the entrance of the central glass tube of the Y-tube olfactometer and observed for 5 min. […] The positions of the arms were reversed after 5 insects to avoid positional bias. The experimental device was cleaned after every 10 insects by washing it with absolute acetone and followed by heating at 100 °C for 5 min. Each concentration of compound stimulus was tested with 30 insects, which successfully made a “choice.” The choice index was calculated as the number of responses of moths to […] divided by the total number of test moths.

P. xylostella = conditions: ref Song et al. 2022; cited from earlier work
PxylCSP1 = system: PxylCSP1; design: method as in Liu et al. 2010; conditions: ref Liu et al. 2010; cited from earlier work
[3] = 1-NPN 1 µM, PxylCSP18 1 µM, ligand 1 to 17 µM, concentration of ligand halving the initial fluorescence, N.D. = no significant binding detected, read-out: IC50
[4] = 1-NPN 1 µM, PxylCSP18 1 µM, N.D. = no significant binding detected
[5] = 1-NPN 1 µM, PxylCSP18 1 µM, ligand 1 to 17 µM

T1 sequence (A0ABQ7Q8H2 entry or part of it Q80P): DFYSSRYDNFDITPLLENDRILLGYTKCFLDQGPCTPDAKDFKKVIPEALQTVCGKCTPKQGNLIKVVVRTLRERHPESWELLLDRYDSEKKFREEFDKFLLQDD

**Q.** Which Kd (PxylCSP18 [1]) does the source give for `c1ccc(Nc2cccc3ccccc23)cc1` [1-NPN, N-phenyl-1-naphthylamine] here?
**A.** 9.85 µM

**Q.** With `CCCCCCCCC=O` [1-Nonanal] as the molecule, how does the IC50 (PxylCSP18 [2]) read?
**A.** 7.94 µM

**Q.** Which IC50 (PxylCSP18 [2]) does the source give for `C=CC(O)CC` (stereo not drawn) [1-Penten-3-ol] here?
**A.** 7.17 µM

**Q.** Which “affinity of PxylCSP11” value (PxylCSP11) does the source give for `CCCC(C)CC(C)C` (stereo not drawn) [2,4-dimethylheptane] here?
**A.** good affinities

**Q.** Which results are given for `CCC/C=C/CO` [(E)-2-Hexenal-1-ol]?
**A.** attractive effects to P. xylostella female adults after knocked down the expression of PxylCSP18 (P. xylostella adults): decreased inconspicuously; attractive effects to P. xylostella male adults after knocked down the expression of PxylCSP18 (P. xylostella adults): significantly decreased; IC50 (PxylCSP18 [2]; [3]): 7.66 µM; Ki (PxylCSP18 [2]; [4]): 6.11 µM

**Q.** With `CC/C=C\CCOC(C)=O` [(Z)-3-Hexenyl acetate] as the molecule, how does the IC50 (PxylCSP18 [2]) read?
**A.** 9.09 µM

**Q.** Which “binding affinity of PxylCSP18 to ligand (in words)” value (PxylCSP18 [2]; [5]) does the source give for `CCCC/C=C\CCCCCCCCCC=O` [(Z)-11-hexadecenal] here?
**A.** no significant binding affinity

**Q.** What does the source list for `CCCC/C=C\CCCCCCCCCCOC(C)=O` [(Z)-11-hexadecenyl acetate]?
**A.** affinity of PxylCSP11 (PxylCSP11): good affinities; binding affinity of PxylCSP18 to ligand (in words) (PxylCSP18 [2]; [5]): no significant binding affinity

**Q.** Which “binding affinity of PxylCSP18 to ligand (in words)” value (PxylCSP18 [2]; [5]) does the source give for `CCCC/C=C\CCCCCCCCCCO` [(Z)-11-hexadecenyl alcolol] here?
**A.** no significant binding affinity

**Q.** Which results are given for `C=CCN=C=S` [Allyl isothiocyanate]?
**A.** affinity of PxylCSP11 (PxylCSP11): good affinities; IC50 (PxylCSP18 [2]): 7.23 µM

**Q.** Which IC50 (PxylCSP18 [2]) does the source give for `CCCCN=C=S` [Buty1 isothiocyanate] here?
**A.** 8.86 µM

**Q.** Which IC50 (PxylCSP18 [2]; [3]) does the source give for `CCCCCC=O` [Caproldehyde] here?
**A.** 7.49 µM

**Q.** What about the Ki (PxylCSP18 [2]; [4]) of the same molecule?
**A.** 5.98 µM

**Q.** What does the source list for `CC(C)N=C=S` [Isopropyl isothiocyanate]?
**A.** attractive effects to P. xylostella female adults after knocked down the expression of PxylCSP18 (P. xylostella adults): significantly weakened; attractive effects to P. xylostella male adults after knocked down the expression of PxylCSP18 (P. xylostella adults): significantly decreased; IC50 (PxylCSP18 [2]): 8.17 µM

**Q.** Which IC50 (PxylCSP18 [2]; [3]) does the source give for `C=C(C)[C@H]1CC=C(C)CC1` [Limonene] here?
**A.** 1.85 µM

**Q.** And the Ki (PxylCSP18 [2]; [4])?
**A.** 1.48 µM

**Q.** Which “repellent effects to P. xylostella female adults after knocked down the expression of PxylCSP18” value (P. xylostella adults) does the source give for `C=CC(C)(O)CCC=C(C)C` (stereo not drawn) [Linalool] here?
**A.** significantly weakened

**Q.** What about the “repellent effects to P. xylostella male adults after knocked down the expression of PxylCSP18” value (P. xylostella adults) of the same molecule?
**A.** decreased inconspicuously

**Q.** What about the IC50 (PxylCSP18 [2]) of the same molecule?
**A.** 7.61 µM

**Q.** Which results are given for `C=CC(=C)CCC=C(C)C` [Myrcene]?
**A.** behavioural effect on P. xylostella (P. xylostella): repellent; repellent effects to P. xylostella female adults after knocked down the expression of PxylCSP18 (P. xylostella adults): decreased inconspicuously; repellent effects to P. xylostella male adults after knocked down the expression of PxylCSP18 (P. xylostella adults): decreased inconspicuously; IC50 (PxylCSP18 [2]): 1.34 µM

**Q.** With `CC1(C)[C@H]2O[C@H]2[C@H]2[C@](C)(O)[C@@H]3CC[C@@H]4[C@@H](O)[C@@]3(C[C@@H](O)[C@@]21O)C[C@@]4(C)O` [Rhodojaponin-III] as the molecule, how does the “ability of PxylCSP1 to bind” value (PxylCSP1) read?
**A.** remarkable ability to bind

**Q.** For `OCCc1ccccc1` [phenethyl alcohol], which “affinity of PxylCSP11” value (PxylCSP11) is on record?
**A.** good affinities

**Q.** With `S=C=NCCc1ccccc1` [phenethyl isothiocyanate] as the molecule, how does the “affinity of PxylCSP11” value (PxylCSP11) read?
**A.** good affinities

**Q.** For `CC(=O)/C=C/C1C(C)=CCCC1(C)C` (stereo not drawn) [α-Ionone], which IC50 (PxylCSP18 [2]) is on record?
**A.** 4.19 µM

**Q.** With `CC1=CC=C(C(C)C)CC1` [α-Terpinene] as the molecule, how does the “affinity of PxylCSP11” value (PxylCSP11) read?
**A.** good affinities

**Q.** What about the IC50 (PxylCSP18 [2]) of the same molecule?
**A.** 1.29 µM

**Q.** For `CC1=CC[C@@H](C(C)(C)O)CC1` [α-terpineol], which “affinity of PxylCSP11” value (PxylCSP11) is on record?
**A.** good affinities

**Q.** With `CC1=CCC(C(C)C)=CC1` [γ-Terpinene] as the molecule, how does the “behavioural effect on P. xylostella” value (P. xylostella) read?
**A.** repellent

**Q.** And the IC50 (PxylCSP18 [2])?
**A.** 1.21 µM
